Experimental data as given in ChEMBL document CHEMBL1201862, “PubChem BioAssay data set” (2004).
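Method: 48-hour compound exposure of cells in 96-well plates, five concentrations, linear interpolation of endpoints. The concentration for 50% growth inhibition is given as GI50.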 The source made the active and inactive calls. Cut-off read from the data, not from the text of the source: active = GI50 up to about 1.1 µM and inactive = higher.

What was measured:
Assay in all cases: NCI tumour cell line growth inhibition, 48 h
MDA-MB-231 = tested on: MDA-MB-231
T47D = tested on: T47D
TK-10 = tested on: TK-10
DU-145 = tested on: DU-145
U-251 = tested on: U-251
SK-MEL-28 = tested on: SK-MEL-28
HCC 2998 = tested on: HCC 2998
NCI-H522 = tested on: NCI-H522
MOLT-4 = tested on: MOLT-4
Hs-578T = tested on: Hs-578T
SK-MEL-5 = tested on: SK-MEL-5
HOP-62 = tested on: HOP-62
BT-549 = tested on: BT-549
UACC-62 = tested on: UACC-62
A549 = tested on: A549
OVCAR-3 = tested on: OVCAR-3
UACC-257 = tested on: UACC-257
SF-295 = tested on: SF-295
NCI-H226 = tested on: NCI-H226
SN12C = tested on: SN12C
MCF7 = tested on: MCF7
RXF 393 = tested on: RXF 393
COLO 205 = tested on: COLO 205
HCT-15 = tested on: HCT-15
ACHN = tested on: ACHN
HT-29 = tested on: HT-29
OVCAR-5 = tested on: OVCAR-5
SW-620 = tested on: SW-620
IGROV-1 = tested on: IGROV-1
PC-3 = tested on: PC-3
SF-539 = tested on: SF-539
SNB-19 = tested on: SNB-19
HOP-92 = tested on: HOP-92
UO-31 = tested on: UO-31
M14 = tested on: M14
K562 = tested on: K562
NCI-H460 = tested on: NCI-H460
OVCAR-4 = tested on: OVCAR-4
CCRF-CEM = tested on: CCRF-CEM
NCI-H23 = tested on: NCI-H23
EKVX = tested on: EKVX
HL-60 = tested on: HL-60
SF-268 = tested on: SF-268
HCT-116 = tested on: HCT-116
CAKI-1 = tested on: CAKI-1
LOX IMVI = tested on: LOX IMVI
SR = tested on: SR
SK-MEL-2 = tested on: SK-MEL-2
OVCAR-8 = tested on: OVCAR-8
NCI/ADR-RES = tested on: NCI/ADR-RES
MDA-MB-435 = tested on: MDA-MB-435
A498 = tested on: A498
MDA-N = tested on: MDA-N
786-0 = tested on: 786-0
RPMI-8226 = tested on: RPMI-8226
SK-OV-3 = tested on: SK-OV-3

In the case of `CCOC(=O)N1CCNCCN(C(=O)OCC)CCNCC1`, the GI50 (MDA-MB-231) is reported as > 100 µM (inactive), the GI50 (T47D) is reported as > 100 µM (inactive) and the GI50 (TK-10) is reported as > 100 µM (inactive). For the same molecule, the GI50 (DU-145) was > 100 µM (inactive), the GI50 (U-251) was > 100 µM (inactive) and the GI50 (SK-MEL-28) was > 100 µM (inactive). For the same molecule, the GI50 (HCC 2998) was > 100 µM (inactive), the GI50 (NCI-H522) was > 100 µM (inactive) and the GI50 (MOLT-4) was > 100 µM (inactive). The GI50 (Hs-578T) was > 100 µM (inactive), the GI50 (SK-MEL-5) was > 100 µM (inactive) and the GI50 (HOP-62) was > 100 µM (inactive). For the same molecule, the GI50 (BT-549) was > 100 µM (inactive), the GI50 (UACC-62) was > 100 µM (inactive) and the GI50 (A549) was > 100 µM (inactive). For the same molecule, the GI50 (OVCAR-3) was > 100 µM (inactive), the GI50 (UACC-257) was > 100 µM (inactive) and the GI50 (SF-295) was > 100 µM (inactive). The GI50 (NCI-H226) was > 100 µM (inactive), the GI50 (SN12C) was > 100 µM (inactive) and the GI50 (MCF7) was > 100 µM (inactive). The GI50 (RXF 393) was > 100 µM (inactive), the GI50 (COLO 205) was > 100 µM (inactive) and the GI50 (HCT-15) was > 100 µM. The GI50 (ACHN) was > 100 µM (inactive), the GI50 (HT-29) was > 100 µM (inactive) and the GI50 (OVCAR-5) was > 100 µM (inactive). For the same molecule, the GI50 (SW-620) was > 100 µM (inactive), the GI50 (IGROV-1) was > 100 µM (inactive) and the GI50 (PC-3) was > 100 µM (inactive). For the same molecule, the GI50 (SF-539) was > 100 µM (inactive), the GI50 (SNB-19) was > 100 µM (inactive) and the GI50 (HOP-92) was > 100 µM (inactive). The GI50 (UO-31) was > 100 µM (inactive), the GI50 (M14) was > 100 µM (inactive) and the GI50 (K562) was > 100 µM (inactive). For the same molecule, the GI50 (NCI-H460) was > 100 µM (inactive), the GI50 (OVCAR-4) was > 100 µM (inactive) and the GI50 (CCRF-CEM) was > 100 µM (inactive). For the same molecule, the GI50 (NCI-H23) was > 100 µM (inactive), the GI50 (EKVX) was > 100 µM (inactive) and the GI50 (HL-60) was > 100 µM (inactive). For the same molecule, the GI50 (SF-268) was > 100 µM (inactive), the GI50 (HCT-116) was > 100 µM (inactive) and the GI50 (CAKI-1) was > 100 µM (inactive). The GI50 (LOX IMVI) was > 100 µM (inactive), the GI50 (SR) was > 100 µM (inactive) and the GI50 (SK-MEL-2) was > 100 µM (inactive). For the same molecule, the GI50 (OVCAR-8) was > 100 µM (inactive), the GI50 (NCI/ADR-RES) was > 100 µM (inactive) and the GI50 (MDA-MB-435) was > 100 µM (inactive). For the same molecule, the GI50 (A498) was > 100 µM (inactive), the GI50 (MDA-N) was > 100 µM (inactive) and the GI50 (786-0) was > 100 µM (inactive). The GI50 (RPMI-8226) was > 100 µM (inactive).
For `CC1(C)OC2C(CO)OC(n3ccc(=O)[nH]c3=O)C2O1` (centres undefined), the GI50 (MDA-MB-231) was > 100 µM (inactive), the GI50 (T47D) was > 100 µM (inactive) and the GI50 (TK-10) was > 100 µM (inactive). The GI50 (DU-145) was > 100 µM (inactive), the GI50 (U-251) was > 100 µM (inactive) and the GI50 (SK-MEL-28) was > 100 µM (inactive). For the same molecule, the GI50 (HCC 2998) was > 100 µM (inactive), the GI50 (NCI-H522) was > 100 µM (inactive) and the GI50 (MOLT-4) was > 100 µM (inactive). The GI50 (Hs-578T) was > 100 µM (inactive), the GI50 (SK-MEL-5) was > 100 µM (inactive) and the GI50 (HOP-62) was > 100 µM (inactive). The GI50 (BT-549) was > 100 µM (inactive), the GI50 (UACC-62) was > 100 µM (inactive) and the GI50 (A549) was > 100 µM (inactive). The GI50 (OVCAR-3) was > 100 µM (inactive), the GI50 (UACC-257) was > 100 µM (inactive) and the GI50 (SF-295) was > 100 µM (inactive). For the same molecule, the GI50 (NCI-H226) was > 100 µM (inactive), the GI50 (SN12C) was > 100 µM (inactive) and the GI50 (MCF7) was > 100 µM (inactive). For the same molecule, the GI50 (RXF 393) was > 100 µM (inactive), the GI50 (COLO 205) was > 100 µM (inactive) and the GI50 (HCT-15) was > 100 µM. For the same molecule, the GI50 (ACHN) was > 100 µM (inactive), the GI50 (OVCAR-5) was > 100 µM (inactive) and the GI50 (SW-620) was > 100 µM (inactive). The GI50 (IGROV-1) was > 100 µM (inactive), the GI50 (PC-3) was > 100 µM (inactive) and the GI50 (SF-539) was > 100 µM (inactive). For the same molecule, the GI50 (SNB-19) was > 100 µM (inactive), the GI50 (HOP-92) was 83.2 µM (inactive) and the GI50 (UO-31) was > 100 µM (inactive). For the same molecule, the GI50 (M14) was > 100 µM (inactive), the GI50 (K562) was > 100 µM (inactive) and the GI50 (NCI-H460) was > 100 µM (inactive). The GI50 (CCRF-CEM) was > 100 µM (inactive), the GI50 (NCI-H23) was > 100 µM (inactive) and the GI50 (EKVX) was > 100 µM (inactive). The GI50 (HL-60) was > 100 µM (inactive), the GI50 (SF-268) was > 100 µM (inactive) and the GI50 (HCT-116) was > 100 µM (inactive). The GI50 (CAKI-1) was > 100 µM (inactive), the GI50 (LOX IMVI) was > 100 µM (inactive) and the GI50 (SR) was > 100 µM (inactive). The GI50 (SK-MEL-2) was > 100 µM (inactive), the GI50 (OVCAR-8) was > 100 µM (inactive) and the GI50 (NCI/ADR-RES) was > 100 µM (inactive). For the same molecule, the GI50 (SK-OV-3) was > 100 µM (inactive), the GI50 (MDA-MB-435) was > 100 µM (inactive) and the GI50 (A498) was > 100 µM (inactive). For the same molecule, the GI50 (MDA-N) was > 100 µM (inactive), the GI50 (786-0) was > 100 µM (inactive) and the GI50 (RPMI-8226) was > 100 µM (inactive).
